Assay results published in patent US9802920B2, “Inhibitors of bruton's tyrosine kinase” (HOFFMANN-LA ROCHE INC., priority 2013, dated 2017).

What follows are compounds tested against inactivated state of Bruton's Tyrosine Kinase (Homo sapiens (Human), UniProt Q06187) (assay: Bruton's Tyrosine Kinase (BTK) Inhibition TR-FRET competition assay). Conditions: Kinase Tracer 178, incubated 18-24 h at 14° C.
Type: binding
Source text: Calculate percent activity from raw data in cpm percent activity=(sample−bkg)/(total activity−bkg)×100 Calculate IC50 from percent activity, using one-site dose response sigmoidal model y=A+((B−A)/(1+((x/C)^D)))) x=cmpd conc, y=% activity, A=min, B=max, C=IC50, D=1 (hill slope) Bruton's Tyrosine Kinase (BTK) Inhibition TR-FRET (Time Resolved FRET) Assay
This BTK competition assay measures compound potency (IC50) for the inactivated state of Bruton's Tyrosine Kinase using FRET (Förster/Flouresence Resonance Energy Transfer) technology. The BTK-Eu complex was incubated on ice one hour prior to use at a starting concentration of 50 nM BTK-Bioease™: 10 nM Eu-streptavidin (Perkin-Elmer Catalog# AD0062). The assay buffer consisted of 20 mM HEPES (pH 7.15), 0.1 mM DTT, 10 mM MgCl2, 0.5 mg/ml BSA with 3% Kinase Stabilizer (Fremont Biosolutions, Catalog # STB-K02). After 1 h, the reaction mixture from above was diluted 10 fold in assay buffer to make 5 nM BTK: 1 nM Eu-Streptavidin complex (donor fluorophore). 18 μl of a mixture of 0.11 nM BTK-Eu and 0.11 nM Kinase Tracer 178 (Invitrogen, Catalog # PV5593) with BTK-Eu alone as no negative control, was then dispensed into 384-well flat bottom plates (Greiner, 784076). Compounds to be tested in assay were prepared as 10× concentrations and serial dilution in half-log increments was performed in DMSO so as to generate 10 point curves. To initiate the FRET reaction, compounds prepared as 10× stock in DMSO was added to the plates and the plates were incubated 18-24 h at 14° C.
After the incubation the plates were read on a BMG Pherastar Fluorescent plate reader (or equivalent) and used to measure the emission energy from the europium donor fluorophore (620 nm emission) and the FRET (665 nm emission). The negative control well values were averaged to obtain the mean minimum. The positive “no inhibitor” control wells were averaged to obtain the mean maximum. Percent of maximal FRET was calculated using following equation: % max FRET=100×[(FSRcmpd−FSRmean min)/(FSRmean max−FSRmean min)] where FSR=FRET Signal ratio. % Max FRET curves were plotted in Activity Base (Excel) and the IC50(%), hill slope, z′ and % CV were determined. The mean IC50 and standard deviation will be derived from duplicate curves (singlet inhibition curves from two independent dilutions) using Microsoft Excel.

Chain of inactivated state of Bruton's Tyrosine Kinase (Q06187 whole entry): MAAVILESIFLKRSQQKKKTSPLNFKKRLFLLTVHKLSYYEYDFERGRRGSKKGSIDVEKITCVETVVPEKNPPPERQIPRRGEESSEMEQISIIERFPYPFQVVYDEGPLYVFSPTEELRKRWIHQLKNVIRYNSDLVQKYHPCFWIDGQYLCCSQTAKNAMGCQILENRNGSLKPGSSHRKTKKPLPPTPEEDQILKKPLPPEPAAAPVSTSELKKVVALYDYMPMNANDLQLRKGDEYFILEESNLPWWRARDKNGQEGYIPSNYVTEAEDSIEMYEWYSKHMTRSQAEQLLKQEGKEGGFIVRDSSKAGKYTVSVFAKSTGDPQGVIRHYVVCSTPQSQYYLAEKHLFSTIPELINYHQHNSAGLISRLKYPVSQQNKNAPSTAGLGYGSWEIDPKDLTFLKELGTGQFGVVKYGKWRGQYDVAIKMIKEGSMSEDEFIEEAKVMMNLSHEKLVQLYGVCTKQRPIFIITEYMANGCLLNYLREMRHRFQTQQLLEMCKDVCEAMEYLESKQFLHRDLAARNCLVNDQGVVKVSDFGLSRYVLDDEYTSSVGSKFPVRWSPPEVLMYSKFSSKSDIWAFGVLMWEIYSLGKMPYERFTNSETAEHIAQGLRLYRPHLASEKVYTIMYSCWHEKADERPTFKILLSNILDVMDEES

`Nc1c(C(=O)c2cc3ccccc3[nH]2)cnn1-c1ccc(Oc2ccccc2)c(O)c1` [Compound I-8, [5-Amino-1-(3-hydroxy-4-phenoxy-phenyl)-1H-pyrazol-4-yl]-(1H-indol-2-yl)-methanone] and `Nc1c(C(=O)c2cc3ccccc3[nH]2)cnn1-c1ccc(Oc2ccccc2)c(F)c1` [Compound I-1, [5-Amino-1-(3-fluoro-4-phenoxy-phenyl)-1H-pyrazol-4-yl]-(1H-indol-2-yl)-methanone] are within 1.5-fold of each other in IC50: 59 nM for the first, 41 nM for the second.

Compared with `N#Cc1cccc(Oc2ccc(-n3ncc(C(=O)c4cc5ccccc5[nH]4)c3N)c(Cl)c2)c1` [Compound I-16, 3-{4-[5-Amino-4-(1H-indole-2-carbonyl)-pyrazol-1-yl]-3-chloro-phenoxy}-benzonitrile], `N#Cc1cccc(Oc2ccc(-n3ncc(C(=O)c4cc5ccc(CN6CCOCC6)cc5[nH]4)c3N)c(Cl)c2)c1` [Compound I-20, 3-{4-[5-Amino-4-(6-morpholin-4-ylmethyl-1H-indole-2-carbonyl)-pyrazol-1-yl]-3-chloro-phenoxy}-benzonitrile] is 82-fold lower in IC50: 82 nM for the first, 1 nM for the second. The second is the more potent here.

Going from `Cc1cc(Oc2ccccc2C#N)ccc1-n1ncc(C(=O)c2cc3ccccc3[nH]2)c1N` [Compound I-15, 2-{4-[5-Amino-4-(1H-indole-2-carbonyl)-pyrazol-1-yl]-3-methyl-phenoxy}-benzonitrile] to `Cc1cc(Oc2cccc(F)c2F)ccc1-n1ncc(C(=O)c2cc3ccccc3[nH]2)c1N` [Compound I-14, {5-Amino-1-[4-(2,3-difluoro-phenoxy)-2-methyl-phenyl]-1H-pyrazol-4-yl}-(1H-indol-2-yl)-methanone], the IC50 falls from 7 nM to 3 nM (2.3-fold).

Going from `Nc1c(C(=O)c2cc3ccc(CN4CCOCC4)cc3[nH]2)cnn1-c1ccc(Oc2ccccc2)cc1` [Compound I-19, [5-Amino-1-(4-phenoxy-phenyl)-1H-pyrazol-4-yl]-(6-morpholin-4-ylmethyl-1H-indol-2-yl)-methanone] to `Nc1c(C(=O)c2cc3ccccc3[nH]2)cnn1-c1ccc(Oc2ccc(F)c(F)c2)cc1` [Compound I-6, {5-Amino-1-[4-(3,4-difluoro-phenoxy)-phenyl]-1H-pyrazol-4-yl}-(1H-indol-2-yl)-methanone], the IC50 rises from 0.5 nM to 1000 nM (2000-fold).

`COc1cc(Oc2ccccc2)ccc1-n1ncc(C(=O)c2cc3ccccc3[nH]2)c1N` [Compound I-9, [5-Amino-1-(2-methoxy-4-phenoxy-phenyl)-1H-pyrazol-4-yl]-(1H-indol-2-yl)-methanone] and `Nc1c(C(=O)c2cc3ccccc3[nH]2)cnn1-c1ccc(Oc2ccccc2)cc1O` [Compound I-10, [5-Amino-1-(2-hydroxy-4-phenoxy-phenyl)-1H-pyrazol-4-yl]-(1H-indol-2-yl)-methanone] are within 1.5-fold of each other in IC50: 146 nM for the first, 162 nM for the second.

Compared with `Cc1cc(Oc2cccc(F)c2F)ccc1-n1ncc(C(=O)c2nc3ccccc3[nH]2)c1N` [Compound I-18, {5-Amino-1-[4-(2,3-difluoro-phenoxy)-2-methyl-phenyl]-1H-pyrazol-4-yl}-(1H-benzoimidazol-2-yl)-methanone], `Cc1cc(Oc2cccc(C(N)=O)c2)ccc1-n1ncc(C(=O)c2nc3ccccc3[nH]2)c1N` [Compound I-17, 3-{4-[5-Amino-4-(1H-benzoimidazole-2-carbonyl)-pyrazol-1-yl]-3-methyl-phenoxy}-benzamide] is 46-fold higher in IC50: 5 nM for the first, 230 nM for the second. The first is the more potent here.

`Nc1c(C(=O)c2cc3ccccc3[nH]2)cnn1-c1ccc(Oc2ccccc2)c(Cl)c1` [Compound I-5] was tested, and the IC50 was 216 nM.

`CC(C)(C)COc1ccc(-n2ncc(C(=O)c3cc4ccccc4[nH]3)c2N)cc1` [Compound I-13, {5-Amino-1-[4-(2,2-dimethyl-propoxy)-phenyl]-1H-pyrazol-4-yl}-(1H-indol-2-yl)-methanone] and `Nc1c(C(=O)c2cc3ccccc3[nH]2)cnn1-c1ccc(OC2CCCC2)cc1` [Compound I-12, [5-Amino-1-(4-cyclopentyloxy-phenyl)-1H-pyrazol-4-yl]-(1H-indol-2-yl)-methanone] cannot be ordered by FRET IC50: greater than 1000 nM for the first, greater than 1000 nM for the second.

These compounds were tested against Btk enzyme (His-tagged, full-length) (Homo sapiens (Human), UniProt Q06187) (assay: Bruton's Tyrosine Kinase (Btk) Inhibition Assay, radioactive 33P filtration capture). Conditions: 100 μM ATP, 30 μM peptide substrate; read-out: Radiometric IC50.
Chain of Btk enzyme (His-tagged, full-length) (Q06187 whole entry): as above
Type: biochemical
Source text: Bruton's Tyrosine Kinase (Btk) Inhibition Assay
The assay is a capture of radioactive ^33P phosphorylated product through filtration. The interactions of Btk, biotinylated SH2 peptide substrate (Src homology), and ATP lead to phosphorylation of the peptide substrate. Biotinylated product is bound streptavidin sepharose beads. All bound, radiolabeled products are detected by scintillation counter.
Plates assayed are 96-well polypropylene (Greiner) and 96-well 1.2 μm hydrophilic PVDF filter plates (Millipore). Concentrations reported here are final assay concentrations: 10-100 μM compounds in DMSO (Burdick and Jackson), 5-10 nM Btk enzyme (His-tagged, full-length), 30 μM peptide substrate (Biotin-Aca-[…]-NH2), 100 μM ATP (Sigma), 8 mM imidazole (Sigma, pH 7.2), 8 mM glycerol-2-phosphate (Sigma), 200 μM EGTA (Roche Diagnostics), 1 mM MnCl2 (Sigma), 20 mM mgCl2 (Sigma), 0.1 mg/mL BSA (Sigma), 2 mM DTT (Sigma), 1 μCi ^33P ATP (Amersham), 20% streptavidin sepharose beads (Amersham), 50 mM EDTA (Gibco), 2 M NaCl (Gibco), 2 M NaCl w/1% phosphoric acid (Gibco), microscint-20 (Perkin Elmer).
IC50 determinations are calculated from 10 data points per compound utilizing data produced from a standard 96-well plate assay template. One control compound and seven unknown inhibitors were tested on each plate and each plate was run twice. Typically, compounds were diluted in half-log starting at 100 μM and ending at 3 nM. The control compound was staurosporine. Background was counted in the absence of peptide substrate. Total activity was determined in the presence of peptide substrate. The following protocol was used to determine Btk inhibition.
Sample preparation: The test compounds were diluted at half-log increments in assay buffer (imidazole, glycerol-2-phosphate, EGTA, MnCl2, mgCl2, BSA).
1) Rinse beads by centrifuging at 500 g
2) Reconstitute the beads with PBS and EDTA to produce a 20% bead slurry
3) Pre-incubate reaction mix without substrate (assay buffer, DTT, ATP, ^33P ATP) and mix with substrate (assay buffer, DTT, ATP, ^33P ATP, peptide substrate) 30° C. for 15 min.
4) To start assay, pre-incubate 10 μL Btk in enzyme buffer (imidazole, glycerol-2-phosphate, BSA) and 10 μL of test compounds for 10 min at RT.
5) Add 30 μL reaction mixture without or with substrate to Btk and compounds.
6) Incubate 50 μL total assay mix for 30 min at 30° C.
7) Transfer 40 μL of assay to 150 μL bead slurry in filter plate to stop reaction.
8) Wash filter plate after 30 min, with following steps
3×250 μL NaCl containing 1% phosphoric acid
9) Dry plate for 1 h at 65° C. or overnight at RT
10) Add 50 μL microscint-20 and count ^33P cpm on scintillation counter. […]

Compared with `Nc1c(C(=O)c2cc3ccccc3[nH]2)cnn1-c1ccc(Oc2ccccn2)cc1` [Compound I-3, {5-Amino-1-[4-(pyridin-2-yloxy)-phenyl]-1H-pyrazol-4-yl}-(1H-indol-2-yl)-methanone], `Nc1c(C(=O)c2cc3ccccc3[nH]2)cnn1-c1ccc(Oc2ccccc2)nc1` [Compound I-2, [5-Amino-1-(6-phenoxy-pyridin-3-yl)-1H-pyrazol-4-yl]-(1H-indol-2-yl)-methanone] is 1.7-fold higher in IC50: 502 nM for the first, 869 nM for the second.

Compared with `Nc1c(C(=O)c2cc3ccccc3[nH]2)cnn1-c1ccc(Oc2cccnc2)cc1` [Compound I-4, {5-Amino-1-[4-(pyridin-3-yloxy)-phenyl]-1H-pyrazol-4-yl}-(1H-indol-2-yl)-methanone], `CC(C)Oc1ccc(-n2ncc(C(=O)c3cc4ccccc4[nH]3)c2N)cc1` [Compound I-11, [5-Amino-1-(4-isopropoxy-phenyl)-1H-pyrazol-4-yl]-(1H-indol-2-yl)-methanone] is 3.4-fold higher in IC50: 22000 nM for the first, 73800 nM for the second.
